Test results published in patent US12544373B2, “Treatment of cancer, inflammatory diseases and autoimmune diseases” (Usher III Initiative, Inc., priority 2020, dated 2026).
pIC50: −log10 of the molar value. Like-named read-outs stand apart in the source and are kept apart here.

Columns and labels:
Format in all cases: cell-based, human
OVXF A2780 = assay: CellTiter-Blue Cell Viability Assay (Example 2), ovarian; conditions: for T/C %: 72 h
From the text: (§1) The CellTiter-Blue® Cell Viability Assay was used to assess the viability of cells from various cancer cell lines, in the presence or absence of Compound 85 (at different concentrations). This assay provides a homogeneous, fluorometric method for estimating the number of viable cells present in multi-well plates. Viable cells retain the ability to reduce resazurin to resorufin, which is highly fluorescent. […] The fluorescence produced is proportional to the number of viable cells. There is a linear relationship between cell number and fluorescence.
(§2) Cancer cells (see Table 6) were harvested from exponential phase cultures, counted and plated in 96 well flat-bottom microtiter plates, at a cell density 6,000-20,000 cells/well, depending on the cell line's growth rate. The culture medium was supplemented with 10% (v/v) foetal calf serum and 50 μg/mL gentamicin (140 μL/well). Cultures were incubated at 37° C. and 5% CO2 in a humidified atmosphere.
(§3) Compound 85 was serially diluted in DMSO, and five Compound 85 concentrations in half-log increments were used: 0.03 μM, 0.09 μM, 0.30 μM, 1.0 μM, and 3.0 μM. After 24 h, 10 μL of Compound 85 (dissolved in DMSO) or control (DMSO) medium were added, in duplicates, and left on the cells for another 72 h. Compound 85 solutions were added to the assay plates using a Tecan Freedom EVO 200 robotic platform. The DMSO concentration was kept constant at 0.3% v/v across the assay plate.
(§4) After incubation of up to 72 hours, fluorescence (FU) was measured using the EnSpire® multimode plate reader (Perkin Elmer) (excitation λ=570 nm, emission λ=600 nm).
(§5) Cancer cell lines used: Compound 85's anti-cancer effect was tested in 20 human cancer-cell lines representing nine cancer types (Table 6).
(§6) The percentage of viable cells in the presence of Compound 85 (Test condition, T), at different concentrations, are presented in Table 7 and expressed as a percentage of the number of viable cells in the presence of DMSO without Compound 85 (Control condition, C).
(§7) The relative IC50 is determined as the Compound 85 concentration giving a response halfway between the maximum cell viability signal (i.e., a 100% cell viability, no Compound 85 response) and the minimal viability signal (i.e. maximum cell viability inhibition achieved by Compound 85), in a sigmoidal concentration-effect curve.
(§8) The absolute IC50 is determined as the concentration that is associated with a T/C ratio of 50%.

OVXF 899 = assay: as above; conditions: for T/C %: 72 h
From the text: as §1, §2, §3, §4, §5, §6, §7, §8

CXF LS 174T = assay: CellTiter-Blue 2D monolayer assay (Example 1), colon; conditions: for Test/Control (%): 72 h
Experimental: Compound 85 was assessed in 10 human tumor cell lines (see Table 3) for anti-cancer activity in vitro using a CellTiter-Blue® based 2D monolayer assay.
CellTiter-Blue® Cell Viability Assay: Tumor cells were grown at 37° C. in a humidified atmosphere with 5% CO2 in RPMI medium, supplemented with 10% (v/v) fetal calf serum and 50 μg/ml gentamicin (140 μl/well). Cultures were incubated at 37° C. and 5% CO2 in a humidified atmosphere. After 24 hours, 10 μl of Compound 85 was added, and left on the cells for another 72 hours (incubation period). Compound 85 was tested at 5 concentrations (0.003 μM, 0.03 μM, 0.3 μM, 3 μM, and 30 μM) and serially diluted in DMSO, mixed with cell culture medium, and added to the assay plates by using a Tecan Freedom EVO 200 robotic platform. The DMSO concentration was kept constant at 0.3% yip across the assay plate. Every 96 well plate included six DMSO-treated control wells and Compound 85-treated wells in duplicate at 5 concentrations. Viability of cells was quantified using the CellTiter-Blue® cell viability assay (Promega G8081). After incubation of cells, the CellTiter-Blue® reagent was brought to ambient temperature. Next, 20 μl of CellTiter-Blue® reagent were added to each well. After incubation tier up to 4 hours, fluorescence (FU) was measured using the EnSpire® multimode plate reader (Perkin Elmer) ([…]).
Data Evaluation: Sigmoidal concentration-response curves were fitted to the data points (test-versus-control; T/C values) obtained for each tumor model using 4 parameter non-linear curve fit (Charles River DRS Datawarehouse Software). Drug effects are expressed in terms of the percentage of the fluorescence signal, obtained by comparison of the mean signal in the treated wells with the mean signal of the untreated controls (T/C-value [%]) (Table 4). IC50 and IC70 values were reported as relative and absolute IC50 and IC70 values (Table 5). The absolute IC50 and IC70 values reflect the concentration of Compound 85 that achieves T/C=50% and T/C=30%, respectively. The relative IC50 value is the concentration of Compound 85 that gives a response half way between the top and bottom plateau of the sigmoidal concentration-response curve (inflection point of the curve).

MAXFHER JIMT-1 = assay: CellTiter-Blue Cell Viability Assay (Example 2), breast; conditions: for T/C %: 72 h
From the text: as §1, §2, §3, §4, §5, §6, §7, §8

MAXFHER BT-474 = assay: as above; conditions: for T/C %: 72 h
From the text: as §1, §2, §3, §4, §5, §6, §7, §8

MAXFTN 401 = assay: as above; conditions: for T/C %: 72 h
From the text: as §1, §2, §3, §4, §5, §6, §7, §8

In the case of `CC(C)(O)Cn1nc(-c2ccccc2)c2c(Cl)c(-c3ccccc3)nnc21` [Compound 85], the “Absolute IC70” value (OVXF A2780) was 0.463 µM, the “Relative IC70” value (OVXF A2780) was 0.463 µM and the T/C % (OVXF A2780; 0.03 μM) was 102%. The T/C % (OVXF A2780; 0.095 μM) was 96%, the T/C % (OVXF A2780; 0.3 μM) was 87% and the T/C % (OVXF A2780; 0.95 μM) was 0%. It also gave a T/C % (OVXF A2780; 3.0 μM) of 0%, a pIC50 (OVXF A2780; read-out: Absolute IC50) of 6.39 and a pIC50 (OVXF A2780; read-out: Relative IC50) of 6.39. The “Absolute IC70” value (OVXF 899) was 0.418 µM, the “Relative IC70” value (OVXF 899) was 0.423 µM and the T/C % (OVXF 899; 0.03 μM) was 98%. It also gave a T/C % (OVXF 899; 0.095 μM) of 94%, a T/C % (OVXF 899; 0.3 μM) of 65% and a T/C % (OVXF 899; 0.95 μM) of 1%. The T/C % (OVXF 899; 3.0 μM) was 0%, the pIC50 (OVXF 899; read-out: Absolute IC50) was 6.46 and the pIC50 (OVXF 899; read-out: Relative IC50) was 6.45. The “Rel. IC70” value (CXF LS 174T) was 0.328 µM, the “Test/Control (%)” value (CXF LS 174T; 0.003 μM) was 103% and the “Test/Control (%)” value (CXF LS 174T; 0.03 μM) was 101%. For the same compound, the “Test/Control (%)” value (CXF LS 174T; 0.3 μM) was 35%, the “Test/Control (%)” value (CXF LS 174T; 3 μM) was 4% and the “Test/Control (%)” value (CXF LS 174T; 30 μM) was 0%. The “Abs. IC70” value (CXF LS 174T; T/C=30%) was 0.346 µM, the pIC50 (CXF LS 174T; T/C=50%, read-out: Abs. IC50) was 6.67 and the “Bot. (%)” value (CXF LS 174T; bottom plateau of curve) was 1%. The pIC50 (CXF LS 174T; read-out: Rel. IC50) was 6.69, the “Top (%)” value (CXF LS 174T; top plateau of curve) was 103% and the “Absolute IC70” value (MAXFHER JIMT-1) was 0.957 µM. For the same compound, the “Relative IC70” value (MAXFHER JIMT-1) was 0.844 µM, the T/C % (MAXFHER JIMT-1; 0.03 μM) was 97% and the T/C % (MAXFHER JIMT-1; 0.095 μM) was 97%. It also gave a T/C % (MAXFHER JIMT-1; 0.3 μM) of 96%, a T/C % (MAXFHER JIMT-1; 0.95 μM) of 30% and a T/C % (MAXFHER JIMT-1; 3.0 μM) of 14%. The pIC50 (MAXFHER JIMT-1; read-out: Absolute IC50) was 6.13, the pIC50 (MAXFHER JIMT-1; read-out: Relative IC50) was 6.15 and the “Absolute IC70” value (MAXFHER BT-474) was 1.316 µM. The “Relative IC70” value (MAXFHER BT-474) was 1.01 µM, the T/C % (MAXFHER BT-474; 0.3 μM) was 99% and the T/C % (MAXFHER BT-474; 0.95 μM) was 46%. The T/C % (MAXFHER BT-474; 3.0 μM) was 17%, the pIC50 (MAXFHER BT-474; read-out: Absolute IC50) was 6.05 and the pIC50 (MAXFHER BT-474; read-out: Relative IC50) was 6.12. The “Absolute IC70” value (MAXFTN 401) was 0.503 µM, the “Relative IC70” value (MAXFTN 401) was 0.5 µM and the T/C % (MAXFTN 401; 0.03 μM) was 99%. The T/C % (MAXFTN 401; 0.095 μM) was 99%, the T/C % (MAXFTN 401; 0.3 μM) was 87% and the T/C % (MAXFTN 401; 0.95 μM) was 3%. For the same compound, the T/C % (MAXFTN 401; 3.0 μM) was 1%, the pIC50 (MAXFTN 401; read-out: Absolute IC50) was 6.37 and the pIC50 (MAXFTN 401; read-out: Relative IC50) was 6.37.
